In patent US20210177828A1, “TAM FAMILY KINASE /AND CSF1R KINASE INHIBITOR AND USE THEREOF” (Nanjing Transthera Biosciences Co., Ltd., priority 2018, published 2021) one finds IC50 data, which are given here for eight compounds.

Some results are limits rather than exact numbers.

One test addresses T1, Axl (h) (Homo sapiens, UniProt P30530).
T1 sequence (P30530 26-894): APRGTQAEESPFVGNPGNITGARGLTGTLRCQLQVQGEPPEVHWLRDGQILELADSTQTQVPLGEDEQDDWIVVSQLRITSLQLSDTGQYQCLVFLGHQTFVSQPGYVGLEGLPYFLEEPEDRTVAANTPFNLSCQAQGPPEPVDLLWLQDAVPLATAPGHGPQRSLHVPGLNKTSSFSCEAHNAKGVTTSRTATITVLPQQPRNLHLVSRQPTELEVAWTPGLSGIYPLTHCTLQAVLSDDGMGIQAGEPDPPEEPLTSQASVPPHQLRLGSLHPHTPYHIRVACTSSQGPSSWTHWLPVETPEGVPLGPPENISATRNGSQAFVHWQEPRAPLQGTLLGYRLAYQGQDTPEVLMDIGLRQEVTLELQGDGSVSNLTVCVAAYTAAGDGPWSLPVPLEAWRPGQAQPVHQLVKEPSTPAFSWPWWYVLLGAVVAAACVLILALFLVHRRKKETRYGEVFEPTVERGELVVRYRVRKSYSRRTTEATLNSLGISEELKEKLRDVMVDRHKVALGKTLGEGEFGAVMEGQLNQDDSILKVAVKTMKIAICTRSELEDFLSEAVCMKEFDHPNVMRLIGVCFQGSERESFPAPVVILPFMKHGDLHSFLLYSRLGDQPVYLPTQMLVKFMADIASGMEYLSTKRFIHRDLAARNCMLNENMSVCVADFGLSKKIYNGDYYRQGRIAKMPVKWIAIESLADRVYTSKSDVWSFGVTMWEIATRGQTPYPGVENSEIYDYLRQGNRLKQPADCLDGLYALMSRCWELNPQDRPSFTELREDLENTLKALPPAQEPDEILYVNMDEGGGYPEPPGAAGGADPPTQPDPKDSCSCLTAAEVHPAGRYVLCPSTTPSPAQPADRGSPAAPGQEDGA
The test can be described thus: Enzymatic activity assay, Axl (h), [γ-33P]-ATP filter assay. Conditions: 10 μM ATP, 40 min room temperature; read-out: Inhibitory activity IC50 Axl(h). The format is biochemical. The protocol: (§1) Compounds were each dissolved in 100% DMSO to prepare stock solutions with a maximum concentration of 500 μM.
(§2) Compound working solutions (50×) were prepared by diluting a compound stock solution to a final concentration of 500, 150, 50, 15, 5, 1.5, 0.5, 0.15 and 0.05 μM.
An enzyme solution with a final concentration of 1.7 nM was prepared by dissolving Axl (h) enzyme in a mixture of 8 mM MOPS (pH 7.0), 0.2 mM EDTA and 250 μM KKSRGDYMTMQIG. A Mg/ATP mixture of 10 mM magnesium acetate and 10 μM [γ-^33P]-ATP was used to activate the enzymatic reaction.
(§3) A compound working solution was added to a 384-well plate, with final concentrations of 10,000, 3,000, 1,000, 300, 100, 30, 10, 3 and 1 nM, and then different enzymatic reaction solutions prepared according to the above conditions were added. The reaction solutions were incubated at room temperature for 40 min, and then 0.5% phosphoric acid solutions were added to terminate the reaction. 10 μL of the reaction solution was added dropwise to P30 filter paper, washed 4 times with a 0.425% phosphoric acid solution and once with methanol, and then placed in a scintillation counter for detection. Gray analysis was performed on the results with Image J software, and IC50 values were calculated with GraphPad 5.0 software.

The target of the next test is T2, Mer (h) (Homo sapiens, UniProt Q12866).
T2 sequence (Q12866 21-999): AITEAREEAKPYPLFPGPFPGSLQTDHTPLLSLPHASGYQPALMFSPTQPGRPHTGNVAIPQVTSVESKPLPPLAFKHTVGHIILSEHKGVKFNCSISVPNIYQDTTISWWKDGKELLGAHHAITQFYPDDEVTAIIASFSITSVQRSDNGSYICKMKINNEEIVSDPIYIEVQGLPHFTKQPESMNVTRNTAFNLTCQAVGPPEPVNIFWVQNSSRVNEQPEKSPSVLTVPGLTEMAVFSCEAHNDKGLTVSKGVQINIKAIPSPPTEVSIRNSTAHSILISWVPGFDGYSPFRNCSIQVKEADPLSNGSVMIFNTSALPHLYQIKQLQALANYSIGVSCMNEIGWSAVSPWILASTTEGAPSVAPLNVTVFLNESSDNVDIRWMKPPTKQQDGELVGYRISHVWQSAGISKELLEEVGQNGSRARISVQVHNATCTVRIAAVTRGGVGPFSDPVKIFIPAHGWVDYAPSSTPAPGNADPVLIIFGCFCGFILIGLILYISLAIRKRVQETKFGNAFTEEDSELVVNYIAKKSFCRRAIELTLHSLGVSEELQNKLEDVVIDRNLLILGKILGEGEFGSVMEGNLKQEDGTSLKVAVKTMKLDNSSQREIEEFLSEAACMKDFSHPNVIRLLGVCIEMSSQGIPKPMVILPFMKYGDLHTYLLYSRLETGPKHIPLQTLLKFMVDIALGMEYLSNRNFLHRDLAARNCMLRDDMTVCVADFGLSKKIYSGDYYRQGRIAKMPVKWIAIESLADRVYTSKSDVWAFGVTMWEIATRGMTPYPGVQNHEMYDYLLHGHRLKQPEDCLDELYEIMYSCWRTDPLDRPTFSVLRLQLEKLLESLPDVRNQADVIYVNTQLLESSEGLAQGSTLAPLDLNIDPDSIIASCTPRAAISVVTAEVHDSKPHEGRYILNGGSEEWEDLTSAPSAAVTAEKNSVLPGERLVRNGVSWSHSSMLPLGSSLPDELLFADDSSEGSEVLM
The test can be described thus: Enzymatic activity assay, Mer (h), [γ-33P]-ATP filter assay. To be noted: 10 μM ATP, 40 min room temperature; read-out: Inhibitory activity IC50 Mer(h). In kind it is biochemical. The protocol:
as §1, §2
An enzyme solution with a final concentration of 3.1 nM was prepared by dissolving Mer (h) enzyme in a mixture of 8 mM MOPS (pH 7.0), 0.2 mM EDTA, 30 mM NaCl and 250 μM GGMEDIYFEFMGGKKK. A Mg/ATP mixture of 10 mM magnesium acetate and 10 μM [γ-^33P]-ATP was used to activate the enzymatic reaction.
as §3

By IC50 is commonly meant the concentration at which inhibition is half-maximal. Regarding `COc1cc2nccc(Oc3ccc(NC(=O)c4cn(CC5CCOCC5)cc(-c5ccc(C)cc5)c4=O)nc3)c2cc1OC` [Compound 1, N-(5-((6,7-dimethoxyquinolin-4-yl)oxy)pyridin-2-yl)-4-oxo-1-((tetrahydro-2H-pyran-4-yl)methyl)-5-(p-tolyl)-1,4-dihydropyridin-3-carboxamide], the IC50 at Axl (h) came to 5 nM; on Mer (h) it was 2 nM.
The like results for `COc1cc2nccc(Oc3ccc(NC(=O)c4cn(CC5CCS(=O)(=O)CC5)cc(-c5ccc(C)cc5)c4=O)nc3)c2cc1OC` [Compound 7, N-(5-((6,7-dimethoxyquinolin-4-yl)oxy)pyridin-2-yl)-1-((1,1-dioxotetrahydro-2H-thiopyran-4-yl)methyl)-4-oxo-5-(p-tolyl)-1,4-dihydropyridin-3-carboxamide] were, in that order, 20 nM and 50 nM.
`COc1cc2nccc(Oc3ccc(NC(=O)c4nn(CC5CCOCC5)cc(-c5ccc(C)cc5)c4=O)nc3)c2cc1OC` [Compound 2, N-(5-((6,7-dimethoxyquinolin-4-yl)oxy)pyridin-2-yl)-4-oxo-1-((tetrahydro-2H-pyran-4-yl)methyl)-5-(p-tolyl)-1,4-dihydropyridazin-3-carboxamide]: the IC50 at Axl (h) was 7 nM; at Mer (h), less than 1 nM.
`COc1cc2nccc(Oc3ccc(NC(=O)c4cn(C5CCOCC5)cc(-c5ccc(C)cc5)c4=O)nc3)c2cc1OC` [Compound 19, N-(5-((6,7-dimethoxyquinolin-4-yl)oxy)pyridin-2-yl)-4-oxo-1-(tetrahydro-2H-pyran-4-yl)-5-(p-tolyl)-1,4-dihydropyridin-3-carboxamide]: the values for the 50% inhibitory concentration (IC50) at Axl (h) and at Mer (h) were 12 nM and 4 nM, respectively.
Regarding `COc1cc2nccc(Oc3ccc(NC(=O)c4cn(CC5CCOCC5)cc(-c5ccc(C)cc5)c4=O)nn3)c2cc1OC` [Compound 24, N-(6-((6,7-dimethoxyquinolin-4-yl)oxy)pyridazin-3-yl)-4-oxo-1-((tetrahydro-2H-pyran-4-yl)methyl)-5-(p-tolyl)-1,4-dihydropyridin-3-carboxamide], the half-inhibitory concentration (IC50) came out at 9 nM on Axl (h) and 34 nM on Mer (h).
The like results for `COc1cc2nccc(Oc3ccc(NC(=O)c4cc(CC5CCOCC5)cn(-c5ccc(F)cc5)c4=O)nc3)c2cc1OC` [Compound 32, N-(5-((6,7-dimethoxyquinolin-4-yl)oxy)pyridin-2-yl)-1-(4-fluorophenyl)-2-oxo-5-((tetrahydro-2H-pyran-4-yl)methy 1)-1,2-dihydropyridin-3-carboxamide] were, in that order, 31 nM and 12 nM.
The like results for `Cc1ccc(-c2cn(C3CCOCC3)nc(C(=O)Nc3ccc(Oc4ccnc5cc6c(cc45)OCCO6)cn3)c2=O)cc1` [Compound 30, N-(5-((2,3-dihydro-[1,4]dioxino[2,3-g]quinolin-9-yl)oxy)pyridin-2-yl)-4-oxo-1-(tetrahydro-2H-pyran-4-yl)-5-(p-tolyl)-1,4-dihydropyridazin-3-carboxamide] were, in that order, 39 nM and 20 nM.
The like results for `COc1cc2nccc(Oc3cnc(NC(=O)c4nn(CC5CCOCC5)cc(-c5ccc(C)cc5)c4=O)nc3)c2cc1OC` [Compound 16, N-(5-((6,7-dimethoxyquinolin-4-yl)oxy)pyrimidin-2-yl)-4-oxo-1-((tetrahydro-2H-pyran-4-yl)methyl)-5-(p-tolyl)-1,4-dihydropyridazin-3-carboxamide] were, in that order, 4 nM and 3 nM.
